Data from PMC3872965 (Journal of immunology (Baltimore, Md. : 1950), 2013).

System: B*0702-transgenic mice
Details: mouse, in vivo, sc

Sequence: RPRWLDARV
- Average T cell response: 659 SFC/10^6 CD8^+
